From patent US6316437A, “Spirohydantoin compounds and uses thereof” (Merck & Co., Inc., priority 2000, dated 2001)
Structures can show the parent of a compound that is named as a salt. Where two headings read alike, the source gives them in different places.

How the values were obtained:
[1] = molecular target: T1, human alpha 1a adrenergic receptor (Homo sapiens, UniProt P35348); assay: Alpha 1a Adrenergic Receptor Binding (competition binding, [125I]-HEAT); conditions: human alpha 1a membranes, [125I]-HEAT competition, room temperature, one hour
T1 sequence (P35348 1-466): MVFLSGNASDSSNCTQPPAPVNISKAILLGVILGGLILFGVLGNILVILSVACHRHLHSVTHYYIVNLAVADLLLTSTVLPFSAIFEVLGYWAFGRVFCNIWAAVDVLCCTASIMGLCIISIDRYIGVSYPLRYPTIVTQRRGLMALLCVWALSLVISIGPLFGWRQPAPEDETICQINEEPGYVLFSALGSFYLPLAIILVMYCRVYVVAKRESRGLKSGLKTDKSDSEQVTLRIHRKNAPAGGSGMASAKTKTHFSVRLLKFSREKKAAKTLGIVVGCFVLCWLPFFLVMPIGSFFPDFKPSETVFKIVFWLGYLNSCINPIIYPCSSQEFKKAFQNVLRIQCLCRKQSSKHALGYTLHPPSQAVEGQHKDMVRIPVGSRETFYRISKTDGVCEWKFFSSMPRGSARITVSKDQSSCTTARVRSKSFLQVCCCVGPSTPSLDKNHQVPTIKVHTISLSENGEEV
Description: Screening Assay: Alpha 1a Adrenergic Receptor Binding
Membranes prepared from the stably transfected human alpha 1a cell line (ATCC CRL 11140) were used to identify compounds that bind to the human alpha 1a adrenergic receptor. These competition binding reactions (total volume=200 μl) contained 50 mM Tris-HCl pH. 7.4, 5 mM EDTA, 150 mM NaCl, 100 pM [^125 I]-HEAT, membranes prepared from the alpha 1a cell line and increasing amounts of unlabeled ligand. Reactions were incubated at room temperature for one hour with shaking. Reactions were filtered onto Whatman GF/C glass fiber filters with a Inotec 96 well cell harvester. Filters were washed three times with ice cold buffer and bound radioactivity was determined (Ki).

[2] = molecular target: T2, human alpha 1d adrenergic receptor (Homo sapiens, UniProt P25100); assay: Selective Binding Assay, alpha 1d (competition binding, [125I]-HEAT); conditions: alpha 1a versus alpha 1d, [125I]-HEAT competition binding
T2 construct: host or cells: stably transfected cell line
T2 sequence (P25100 1-572): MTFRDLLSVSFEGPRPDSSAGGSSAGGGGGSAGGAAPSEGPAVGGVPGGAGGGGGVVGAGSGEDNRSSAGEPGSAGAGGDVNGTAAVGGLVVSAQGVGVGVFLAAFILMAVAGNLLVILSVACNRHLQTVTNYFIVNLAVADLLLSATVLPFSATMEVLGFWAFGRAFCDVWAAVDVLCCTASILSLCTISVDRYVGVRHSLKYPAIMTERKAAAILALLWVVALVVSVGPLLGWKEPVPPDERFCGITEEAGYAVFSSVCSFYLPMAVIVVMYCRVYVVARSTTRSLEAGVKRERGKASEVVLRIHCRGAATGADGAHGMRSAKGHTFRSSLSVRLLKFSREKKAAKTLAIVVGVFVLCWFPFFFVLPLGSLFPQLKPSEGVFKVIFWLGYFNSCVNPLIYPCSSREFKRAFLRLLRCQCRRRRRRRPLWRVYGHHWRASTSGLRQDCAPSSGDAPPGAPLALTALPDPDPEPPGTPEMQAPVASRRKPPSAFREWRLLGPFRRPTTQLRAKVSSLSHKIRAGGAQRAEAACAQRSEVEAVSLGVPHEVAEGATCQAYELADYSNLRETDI
Description: (§1) Membranes prepared from stably transfected human alpha 1d and alpha 1b cell lines (ATCC CRL 11138 and CRL 11139, respectively) were used to identify compounds that selectively bind to the human alpha 1a adrenergic receptor. These competition binding reactions (total volume=200 μl) contained 50 mM Tris-HCl pH. 7.4, 5 mM EDTA, 150 mM NaCl, 100 pM [^125 I]-HEAT, membranes prepared from cell lines transfected with the respective alpha 1 subtype expression plasmid and increasing amounts of unlabeled ligand. Reactions were incubated at room temperature for one hour with shaking. Reactions were filtered onto Whatman GF/C glass fiber filters with a Inotec 96 well cell harvester. Filters were washed three times with ice cold buffer and bound radioactivity was determined (Ki).

[3] = molecular target: T3, human alpha 1b adrenergic receptor (Homo sapiens, UniProt P35368); assay: Selective Binding Assay, alpha 1b (competition binding, [125I]-HEAT); conditions: alpha 1a versus alpha 1b, [125I]-HEAT competition binding
T3 construct: host or cells: stably transfected cell line
T3 sequence (P35368 1-520): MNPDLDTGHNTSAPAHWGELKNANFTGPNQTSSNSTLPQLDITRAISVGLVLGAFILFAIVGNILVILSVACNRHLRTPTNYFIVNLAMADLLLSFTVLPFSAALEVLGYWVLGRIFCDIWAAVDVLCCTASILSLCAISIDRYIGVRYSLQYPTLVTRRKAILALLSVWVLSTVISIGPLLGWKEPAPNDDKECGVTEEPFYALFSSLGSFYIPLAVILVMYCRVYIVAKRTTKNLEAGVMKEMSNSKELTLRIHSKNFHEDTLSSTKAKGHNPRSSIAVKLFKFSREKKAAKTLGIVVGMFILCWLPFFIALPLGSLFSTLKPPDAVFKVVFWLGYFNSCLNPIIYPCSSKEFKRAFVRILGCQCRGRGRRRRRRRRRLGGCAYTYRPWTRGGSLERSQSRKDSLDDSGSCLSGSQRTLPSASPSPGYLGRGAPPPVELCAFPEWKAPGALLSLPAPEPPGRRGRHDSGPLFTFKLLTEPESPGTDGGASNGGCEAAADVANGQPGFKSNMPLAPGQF
Description: as §1

O=C1Nc2ccc(Cl)cc2C2(CCN(CCCN3C(=O)NC4(CCc5cc(Cl)ccc54)C3=O)CC2)O1 (racemic) [Compound 29, (+/ -)-1-{3-{6-Chlorospiro[4H-3,1-benzoxazine-4,4'-piperidin]-2(1H)-on-1'-yl}propyl}-5'-chloro-spiro[imidazolidine-4,1'indan]-2,5-dione hydrochloride]
Ki ([1]; alpha 1a Ki): < 10 nM

Cl.O=C1Nc2ccc(Cl)cc2C2(CCN(CCCN3C(=O)NC4(CCc5cc(F)ccc54)C3=O)CC2)O1 (racemic) [Compound 15, (+/ -)-1-{3-{6-Chlorospiro[4H-3,1-benzoxazine-4,4'-piperidin]-2(1H)-on-1'-yl}propyl}-5'-fluoro-spiro[imidazolidine-4,1'indan]-2,5-dione hydrochloride]
fold more selective in binding to alpha 1a receptors versus binding to the alpha 1d receptors [2]: at least 10 fold
Ki ([1]; alpha 1a Ki): < 100 nM
fold more selective in binding to alpha 1a receptors versus binding to the alpha 1b receptors [3]: at least 10 fold

O=C1NC2(CCc3cc(F)ccc32)C(=O)N1CCCN1CCC2(CCc3ccccc32)CC1 (racemic) [Compound 12, (+/ -)-1-{3-{Spiro[indano-1,4'-piperidin]-1-yl}propyl}-5'-fluoro-spiro[imidazoline-4,1'indan]-2,5-dione hydrochloride]
Ki ([1]; alpha 1a Ki): < 10 nM

O=C1NC2(CCOc3cc(F)ccc32)C(=O)N1CCCN1CCC(c2ccc(F)cc2)CC1 (single isomer, unassigned; (+)) [Compound 42, (+)-1'-{3-[4-(4-fluorophenyl)piperidin-1-yl]propyl}-7-fluoro-2,3-dihydro-spiro[4H-1-benzopyran-4,4'-imidazolidine]-2',5'-dione]
Ki ([1]; read-out: alpha 1a Ki): < 10 nM

N#Cc1cc(F)ccc1C1CCN(CCCN2C(=O)NC3(CCc4cc(Cl)ccc43)C2=O)CC1 (stereo not shown) [Compound 24]
Ki ([1]; read-out: alpha 1a Ki): < 10 nM

Cl.N#CC1(c2ccccc2)CCN(CCCN2C(=O)NC3(CCCCc4ccc(F)cc43)C2=O)CC1 (racemic) [Compound 48, (+/ -)-1'-[3-(4-Cyano-4-phenylpiperidin-1-yl)propyl]-3-fluoro-6,7,8,9-tetrahydro-spiro[5H-benzocycloheptene-5,4'-imidazolidine]-2',5'-dione hydrochloride]
fold more selective in binding to alpha 1a receptors versus binding to the alpha 1d receptors [2]: at least 10 fold
fold more selective in binding to alpha 1a receptors versus binding to the alpha 1b receptors [3]: at least 10 fold

Cc1ccc2c(c1)CCC21NC(=O)N(CCCN2CCC3(CCc4ccccc43)CC2)C1=O (racemic) [Compound 33, (+/ -)-1-{3-{Spiro[indano-1,4'-piperidin]-1-yl}propyl}-5'-methyl-spiro[imidazolidine-4,1'indan]-2,5-dione hydrochloride]
Ki ([1]; alpha 1a Ki): < 10 nM

Cc1ccc2c(c1)CCC21NC(=O)N(CCCN2CCC3(CCc4ccccc43)CC2)C1=O (single isomer, unassigned; (+)) [Compound 35, (+)-1-{3-{spiro[indano-1,4'-piperidin]-1-yl}propyl}-5'-methyl-spiro[imidazolidine-4,1'indan]-2,5-dione]
Ki ([1]; alpha 1a Ki): < 10 nM

N#Cc1cc(F)ccc1C1CCN(CCCN2C(=O)NC3(CCCOc4cc(F)ccc43)C2=O)CC1 (racemic) [Compound 50, (+/ -)-1-{3-[4-(4-fluoro-2-cyano-phenyl)piperidin-1-yl]propyl}-8-fluoro-2,3,4,5-tetrahydro-spiro[1-benzoxepin-5(2H),4'-imidazolidine]-2',5'-dione hydrochloride]
Ki ([1]; read-out: alpha 1a Ki): < 10 nM

N#CC1(c2ccccc2)CCN(CCCN2C(=O)NC3(CCc4cc(F)ccc43)C2=O)CC1 (stereo not shown) [Compound 10]
Ki ([1]; alpha 1a Ki): < 10 nM

O=C1NC2(CCc3cc(F)ccc32)C(=O)N1CCCN1CCC2(CCc3ccccc32)CC1 (stereo not shown) [Compound 14]
Ki ([1]; alpha 1a Ki): < 100 nM

N#Cc1cc(F)ccc1C1CCN(CCCN2C(=O)NC3(CCc4cc(F)c(F)cc43)C2=O)CC1 (stereo not shown) [Compound 19]
Ki ([1]; read-out: alpha 1a Ki): < 10 nM

O=C1NC2(CCc3cc(Cl)ccc32)C(=O)N1CCCN1CCC2(CCc3ccccc32)CC1 (stereo not shown) [Compound 28]
Ki ([1]; alpha 1a Ki): < 10 nM

N#Cc1cc(F)ccc1C1CCN(CCCN2C(=O)NC3(CCc4cc(F)c(F)cc43)C2=O)CC1 (racemic) [Compound 18, (+/ -)-1-{3-[4-(4-Fluoro-2-cyanophenyl)piperidin-1-yl]propyl}-5',6'-difluoro-spiro[imidazolidine-4,1'indan]-2,5-dione hydrochloride]
Ki ([1]; read-out: alpha 1a Ki): < 10 nM

Cc1ccc2c(c1)CCC21NC(=O)N(CCCN2CCC(c3ccc(F)cc3C#N)CC2)C1=O (racemic) [Compound 36, (+/ -)-1-{3-[4-(4-Fluoro-2-cyanophenyl)piperidin-1-yl]propyl}3-5'-methyl-spiro[imidazolidine-4,1'indan]-2,5-dione hydrochloride]
Ki ([1]; read-out: alpha 1a Ki): < 10 nM

CC(CCN1C(=O)NC2(CCc3cc(Cl)ccc32)C1=O)N1CCC(c2ccc(F)cc2)CC1.Cl (racemic) [Compound 51, (+/ -)-1-{3-[4-(4-fluorophenyl)piperidin-1-yl]butyl}-5'-chloro-spiro[imidazolidine-4,1'indan]-2,5-dione hydrochloride]
fold more selective in binding to alpha 1a receptors versus binding to the alpha 1d receptors [2]: at least 10 fold
fold more selective in binding to alpha 1a receptors versus binding to the alpha 1b receptors [3]: at least 10 fold

N#Cc1cc(F)ccc1C1CCN(CCCN2C(=O)NC3(CCSc4cc(F)ccc43)C2=O)CC1 (racemic) [Compound 45, (+/ -)-1'-{3-[4-(4-Fluoro-2-cyano-phenyl)piperidin-1-yl]propyl}-7-fluoro-2,3-dihydro-spiro[4H-1-benzothiopyran-4,4'-imidazolidine]-2',5'-dione hydrochloride]
Ki ([1]; read-out: alpha 1a Ki): < 10 nM

N#Cc1cc(F)ccc1C1CCN(CCCN2C(=O)NC3(CCc4cc(Cl)ccc43)C2=O)CC1 (racemic) [Compound 23, (+/ -)-1-{3-[4-(4-Fluoro-2-cyanophenyl)piperidin-1-yl]propyl}-5'-chloro-spiro[imidazolidine-4,1'indan]-2,5-dione hydrochloride]
Ki ([1]; read-out: alpha 1a Ki): < 10 nM
